Reference: patent publication US20090155785A1, “REAL-TIME COLORIMETRIC SCREENING INHIBITORS OF ENDONUCLEASE WITH GOLD NANOPARTICLE SUBSTRATE” (NORTHWESTERN UNIVERSITY, priority 2007, published 2009)

What was measured:
[1] = test system: duplex DNA; assay: Melting temperature of duplex DNA (without nanoparticles) in the presence of DNA binding molecule; conditions: DNA duplex 2.0 μM, sodium phosphate buffer 10 mM pH 7.0, NaCl 100 mM, DNA binding molecule 5.0 μM, control 61.0
[2] = test system: DNase I; assay: Colorimetric DNase I inhibition assay, hybridized gold nanoparticle aggregates without linker oligonucleotide (Example 1); type: biochemical; conditions: inhibitor 1 μM, DNase I 15 units/ml, extinction at 520 nm, room temperature; control 6.8 min
Experimental: In addition to screening enzyme activity, one can easily use the assay to evaluate the efficiency of inhibitors of DNase I. In a typical screening experiment, DNase I (15 units/ml) was added to solutions of the DNA-linked gold nanoparticle aggregates in the presence of one of the following DNA binding molecules: amsacrine (AMSA), anthraquinone-2-carboxylic acid (AQ2A), 9-aminoacridine (9-AA), ellipticine (EIPT), daunorubicin (DNR), ethidium bromide (EB) and 4′,6-diamidedino-2-phenylindole (DAPI) (1 μM), respectively. These DNA binding molecules are known to inhibit DNase I. (See R. A. Ikeda, P. B. Dervan, J. Am. Chem. Soc., 104: 296 (1982); S. M. Forrow, M. Lee, R. L. Souhami, J. A. Hartley, Chem. Biol. Interact., 96: 125 (1995); P. G. Baraldi, A. Bovero, F. Fruttarolo, D. Preti, M. A. Tabrizi, M. G. Pavani, R. Romagnoli, Med. Res. Rev., 24: 475 (2004)). Extinction was monitored at 520 nm as a function of time (sample scan rate=5 min^−), and the color of the solution was followed with the naked eye. The time at which 50% of the aggregate is hydrolyzed (TH) can be used as a measure of inhibition (FIG. 6). The inhibitors decrease DNase I activity and increase the TH and, therefore, the corresponding time required for a color change in the solution. […] The trend is determined based on TH, which is consistent with the relative binding affinities of the inhibitors to DNA, as determined by measuring the melting temperature of the duplex DNA in the presence of each DNA-binding molecule (FIG. 6 and Table 1 below).
The relative binding affinities of the inhibitors to DNA are consistent with the hydrolysis time (TH) of the aggregates by DNase I in the presence of a specific inhibitor. TH is determined by measuring the extinction at 520 nm and determining when half of the particles composing the aggregates have been released.
AuNP-1 and AuNP-2 were functionalized with 3′-thiol-modified 30-mer oligonucleotides (AuNP-1, DNA-1 sequence: 5′-[…]-A10-SH-3′, SEQ ID NO: 1; AuNP-2, DNA-2 sequence: 5′-[…]-A10-SH-3′, SEQ ID NO:2) using previously reported methods. (See J. J. Storhoff, R. Elghanian, R. C. Mucic, C. A. Mirkin, R. L. Letsinger, J. Am. Chem. Soc., 120: 1959 (1998)). After combining 1 ml aliquots of the two probes, AuNP-1 and AuNP-2 (each at 3 nM), in hybridization buffer (50 mM Tris-HCl buffer pH 7.0, 2 mM MgCl2), the mixture was heated to 90° C. and held at this temperature for 10 minutes.
The pre-prepared gold nanoparticle aggregates were washed (3 times) with DNase I buffer (10 mM sodium phosphate buffer pH 7.0, 0.75 mM MgCl2). They were then resuspended in 1 ml of DNase I buffer. A 10 μL aliquot of each of the endonuclease inhibitors (0.1 mM) was then added to a 1 ml solution of the aggregates, respectively, and incubated for 10 minutes. The assay was initiated by adding DNase I, and the hydrolysis kinetics were monitored by UV-vis spectroscopy (Cary 5000, Varian). The solution was continuously stirred with a magnetic stir bar at room temperature to keep the aggregates suspended.

[3] = test system: DNase I; assay: Colorimetric DNase I inhibition assay, ligated gold nanoparticle aggregates with linker oligonucleotide (Example 2); type: biochemical; conditions: for t (releasing time; time required to hydrolyze 50% of the aggregates): inhibitor 1 μM, DNase I 15 units/ml, extinction at 520 nm, ligated aggregates, control 9.5 min
Experimental: A typical screening experiment was slated by adding the DNase I to solutions of the gold nanoparticle aggregates in the presence of one of the DNA binding molecules, amsacrine (AMSA), anthrquinone-2-carboxylic acid (AQ2A), 9-aminoacridine (9-AA), ellipticine (EIPT), daunorubicin (DNR), ethidium bromide (EB) and 4′,6-diamidedino-2-phenylindole (DAPI) (1 μM), respectively. The color changes of the solutions were monitored at 520 nm by UV-vis spectrometry over time (sample scan rate=2 min^−1). The inhibitors can decrease DNase I activity and increase the hydrolysis time and the corresponding time required for a color change in the solution. Thus, we could determine the relative activities of different endonuclease inhibitors by measuring the time required to hydrolyze 50% of the aggregates (t). […] The hydrolysis time is consistent with relative binding affinities of inhibitors to DNA by determining the melting temperature (Tm) of duplex DNA at 260 nm in the presence of each DNA-binding molecule.
High-throughput screening is widely used for the identification of hit compounds from combinatorial libraries. (See P. A. Johnston, P. A. Johnston, Drug Discovery Today, 7: 353 (2002); D. L. Boger, J. Deshamais, K. Capps, Angew. Chem. Int. Ed., 42: 4138 (2003); S. Wang, T. B. Sim, Y.-S. Kim, Y.-T. Chang, Cum Opin. Cham. Biol., 8: 371 (2004)). We have examined the application of the gold nanoparticle aggregates for high throughput screening of endonuclease inhibitors by visual inspection. […] Thus, we can determine potencies of inhibitor using color change as a function of time. […] The trend of potencies of inhibitors was determined to be DAPI>EB>DNR>9-AA, EIPT, and AQ2A>AMSA, which is consistent with the control experiments involving serial analysis of each inhibitors with nanoparticle-free duplex DNA.
Two separate types of DNA-AuNPs were prepared by functionalizing 13 nm gold nanoparticles with two different thiol-modified oligonucleotide strands, AuNP-3 and AuNP-4. AuNP-3 was functionalized with 3′-hydroxyl-modified and 5′-thiol-modified 15-mer oligonucleotides (DNA-3 sequence: 5′-SH-A10-CGTTAGGACTTACGC-OH-3′, SEQ ID NO:3). DNA-3 is complementary to one-half of the 30-mer linker oligonucleotide (DNA-linker oligonucleotide sequence: 5′ […]-3′, SEQ ID NO:5). AuNP-4 was functionalized with 3′-thiolated and 5′-phosphorylated 15-mer oligonucleotides (DNA-4: 5′-PO4^3−-TTATAACTATTCCTA-A10-SH-3′, SEQ ID NO:4) that are complementary to the other half of the linker-oligonucleotide. After combining the three components, AuNP-3 and AuNP-4 (each at 3 nM) as well as the linker-oligonucleotides (3 μM), in the presence of ligation buffer (50 mM Tris-HCl buffer pH 7.5, 5 mM MgCl2, […], 0.05 mg/ml BSA, T4 DNA Ligase 4.000 units/ml), the DNAs assemble to form a three-strand DNA hybridization complex. First the linker-oligonucleotide acts as templates to co-align the 3′-hydroxyl group of the DNA-3 and the 5′-phosphate group of the DNA-4. Then the T4 DNA Ligase catalyzes the formation of a phosphodiester bond between the 3′-hydroxyl and the 5′-phosphate groups of DNA-3 and DNA-4, covalently joining DNA-3 and DNA-4 to form a 30-mer oligonucleotide. This method yield stable 30-base-pair double stranded links between the AuNPs. Since the nanoparticles aggregate, a red-to-purple color change can be observed.
The prepared gold nanoparticle aggregate was washed (3 times) with DNase I buffer (10 mM sodium phosphate buffer pH 7.0, 0.25 mM MgCl2). The assay was initiated by adding DNase I (10-50 units/ml) and the hydrolysis kinetics were monitored by a UV-vis spectrum at the extinction of 520 nm with stirring at room temperature.

Structure (SMILES) | Tm (melting temperature of duplex DNA in the presence of endonuclease inhibitor) ([1]; Table 1) [°C] | Tm (melting temperature of duplex DNA in the presence of endonuclease inhibitor) ([1]; Table 2, at 260 nm) [°C] | TH (time at which 50% of the aggregate is hydrolyzed by DNase I) [2] [min] | t (releasing time; time required to hydrolyze 50% of the aggregates) [3] [min] | color change of aggregate solution by visual inspection after adding DNase I (FIG. 10) ([3]; visual inspection, purple to red as a function of reaction time, no or slow change indicates inhibition)
COc1cccc2c1C(=O)c1c(O)c3c(c(O)c1C2=O)C[C@@](O)(C(C)=O)C[C@@H]3O[C@H]1C[C@H](N)[C@H](O)[C@H](C)O1 [DNR, daunorubicin] | 65.5 | 65.5 | 43.2 | 31.5 | –
Cc1c2ccncc2c(C)c2c1[nH]c1ccccc12 [EIPT, ellipticine] | 63.0 | 63.0 | 25.2 | 15.0 | –
N=C(N)c1ccc(-c2cc3ccc(C(=N)N)cc3[nH]2)cc1 [DAPI, 4′,6-diamidedino-2-phenylindole] | 77.0 | 77.0 | 101.2 | >1440 | remains light purple throughout the examination time
O=C(O)c1ccc2c(c1)C(=O)c1ccccc1C2=O [AQ2A, anthraquinone-2-carboxylic acid] | 62.5 | 62.5 | 19.6 | 14.5 | –
Nc1c2ccccc2nc2ccccc12 [9-AA, 9-aminoacridine] | 62.5 | 62.5 | 24.6 | 16.0 | –
